# Patent EP0241232A1, “Isoxazolylethanol derivatives” (SHIONOGI SEIYAKU KABUSHIKI KAISHA, priority 1986, dated 1987)
# System: Sphaerotheca fuliginea
# Assay: Control of cucumber powdery mildew by foliar spray
# Format: in vivo
# Conditions: foliar spray 2.0 ppm; inoculation 24 hr. after application; observed 10 days after inoculation
# Protocol: The test compound was dissolved in a small amount of acetone and suspended in demineralized distilled water containing a spreader, to a concentration of 7.8 ppm and 2.0 ppm. Young cucumber plants (c.v. Tsukuba-Shiroibo) of 2-leaf stage grown in pots were sprayed sufficiently with the suspension.
# Spores of Sphaerotheca fuliginea cultured in cucumber plants were collected and suspended in distilled water. Inoculation was made by spraying with the spore suspension to the test plant of 24 hr. after application of the test compound (preventive control) or 24 hr. before application (curative control).
# Development of the disease was observed 10 days after inoculation and control index was obtained as described in Experiment 3.
row,SMILES,Control Index Preventive Effect
1,Cc1cc(C(O)(Cn2cncn2)c2ccc(Cl)cc2)no1 (stereo not drawn) [Ia - 5],70 (Leaves covered with symptom between 16 % and 45 % area)
2,Cc1cc(C(O)(Cn2cncn2)c2ccc(Cl)cc2Cl)no1 (stereo not drawn) [Ia - 7],90 (Leaves covered with symptom between 4 % and 15 % area)
3,Cc1cc(C(O)(Cn2cncn2)c2ccc(F)cc2F)no1 (stereo not drawn) [Ia - 8],90 (Leaves covered with symptom between 4 % and 15 % area)

# Same assay, conditions: foliar spray 2.0 ppm; inoculation 24 hr. before application; observed 10 days after inoculation
row,SMILES,Control Index Curative Effect
1,Cc1cc(C(O)(Cn2cncn2)c2ccc(Cl)cc2)no1 (stereo not drawn) [Ia - 5],97 (Leaves covered with symptom less than 3 % area)
2,Cc1cc(C(O)(Cn2cncn2)c2ccc(Cl)cc2Cl)no1 (stereo not drawn) [Ia - 7],97 (Leaves covered with symptom less than 3 % area)
3,Cc1cc(C(O)(Cn2cncn2)c2ccc(F)cc2F)no1 (stereo not drawn) [Ia - 8],90 (Leaves covered with symptom between 4 % and 15 % area)

# Same assay, conditions: foliar spray 7.8 ppm; inoculation 24 hr. after application; observed 10 days after inoculation
row,SMILES,Control Index Preventive Effect
1,Cc1cc(C(O)(Cn2cncn2)c2ccc(Cl)cc2)no1 (stereo not drawn) [Ia - 5],97 (Leaves covered with symptom less than 3 % area)
2,Cc1cc(C(O)(Cn2cncn2)c2ccc(Cl)cc2Cl)no1 (stereo not drawn) [Ia - 7],100
3,Cc1cc(C(O)(Cn2cncn2)c2ccc(F)cc2F)no1 (stereo not drawn) [Ia - 8],97 (Leaves covered with symptom less than 3 % area)

# Same assay, conditions: foliar spray 7.8 ppm; inoculation 24 hr. before application; observed 10 days after inoculation
row,SMILES,Control Index Curative Effect
1,Cc1cc(C(O)(Cn2cncn2)c2ccc(Cl)cc2)no1 (stereo not drawn) [Ia - 5],100
2,Cc1cc(C(O)(Cn2cncn2)c2ccc(Cl)cc2Cl)no1 (stereo not drawn) [Ia - 7],100
3,Cc1cc(C(O)(Cn2cncn2)c2ccc(F)cc2F)no1 (stereo not drawn) [Ia - 8],100

# System: Rhizoctonia solani
# Assay: Control by seed-soaking: Rhizoctonia damping-off in cucumber
# Format: in vivo
# Conditions: 360 h, seed-soaking, 125 ppm, observed 15 days after sowing, control effect by equation, read-out: Control Index Rhizoctonia Damping-Off in Cucumber
# Protocol: (§1) The test compound was dissolved in 0.2 ml of acetone and suspended in demineralized distilled water containing a small amount of spreader, to a concentration of 500 ppm. The suspension was further diluted to one quarter dilution with demineralized distilled water (containing a small amount of spreader) to give a suspension in 125 ppm. All seeds of oats, wheat and cucumber were soaked in these suspensions at room temperature for an hour and then the seeds were air-dried.
# (§2) The seeds as described above were sown in plastic pots (diameter : 9 cm). For rust and powdery mildews, the pots were kept in a glasshouse for 1 - 3 weeks until the seeds grew to young plants. The young oats (10 - 20 plants per pot) were inoculated by dusting with spores of Puccinia coronata, and the wheat (10 - 20 plants per pot) was also inoculated by spraying with spores of Erysiphe graminis f. sp. tritici, and the cucumber (1 plant per pot) was also inoculated by spraying with spore suspension of Sphaerotheca fuliginea. These inoculated plants were further kept in a glasshouse for 10 - 14 days until assessment. For damping-off, the treated seeds were sown in paper pots (diameter : 7.5 cm; depth : 6 cm) which contained soil infested with Rhizoctonia solani by mixing sterilized soil and pre-cultured fungus. Then the pots were kept in a humid glasshouse at 25 - 32 ^*C.
# (§3) Damping-off was observed 15 days after sowing, and disease degree and control effect were obtained from the following equations. [formula] [formula] where diseased seedlings included damping-off and unemerged'seeds due to infection. For the foliar diseases, disease development was observed 10 - 14 days after inoculation of spores, and control effect was obtained by the following index.
row,SMILES,pest or weed control at 125 ppm [%]
1,Cc1cc(C(O)(Cn2cncn2)c2ccc(Cl)cc2)no1 (stereo not drawn) [Ia - 5],66
2,Cc1cc(C(O)(Cn2cncn2)c2ccc(Cl)cc2Cl)no1 (stereo not drawn) [Ia - 7],92
3,Cc1cc(C(O)(Cn2cncn2)c2ccc(F)cc2F)no1 (stereo not drawn) [Ia - 8],74

# Same assay, conditions: 360 h, seed-soaking, 500 ppm, observed 15 days after sowing, control effect by equation, read-out: Control Index Rhizoctonia Damping-Off in Cucumber
row,SMILES,pest or weed control at 500 ppm [%]
1,Cc1cc(C(O)(Cn2cncn2)c2ccc(Cl)cc2)no1 (stereo not drawn) [Ia - 5],94
2,Cc1cc(C(O)(Cn2cncn2)c2ccc(Cl)cc2Cl)no1 (stereo not drawn) [Ia - 7],94
3,Cc1cc(C(O)(Cn2cncn2)c2ccc(F)cc2F)no1 (stereo not drawn) [Ia - 8],94

# System: Erysiphe graminis f. sp. tritici
# Assay: Control by seed-soaking: powdery mildew in wheat
# Format: in vivo
# Conditions: 125 ppm
# Protocol: as §1, §2, §3
row,SMILES,Control Index Powdery Mildew in Wheat
1,Cc1cc(C(O)(Cn2cncn2)c2ccc(Cl)cc2)no1 (stereo not drawn) [Ia - 5],70 (Leaves covered with symptom between 16 % and 45 % area)
2,Cc1cc(C(O)(Cn2cncn2)c2ccc(Cl)cc2Cl)no1 (stereo not drawn) [Ia - 7],70 (Leaves covered with symptom between 16 % and 45 % area)

# Same assay, conditions: 500 ppm
row,SMILES,Control Index Powdery Mildew in Wheat
1,Cc1cc(C(O)(Cn2cncn2)c2ccc(Cl)cc2)no1 (stereo not drawn) [Ia - 5],100
2,Cc1cc(C(O)(Cn2cncn2)c2ccc(Cl)cc2Cl)no1 (stereo not drawn) [Ia - 7],70 (Leaves covered with symptom between 16 % and 45 % area)

# System: Sphaerotheca fuliginea
# Assay: Control by seed-soaking: powdery mildew in cucumber
# Format: in vivo
# Conditions: 125 ppm
# Protocol: as §1, §2, §3
row,SMILES,Control Index Powdery Mildew in Cucumber
1,Cc1cc(C(O)(Cn2cncn2)c2ccc(Cl)cc2)no1 (stereo not drawn) [Ia - 5],0 (Leaves covered with symptom more than 66 %)

# Same assay, conditions: 500 ppm
row,SMILES,Control Index Powdery Mildew in Cucumber
1,Cc1cc(C(O)(Cn2cncn2)c2ccc(Cl)cc2)no1 (stereo not drawn) [Ia - 5],70 (Leaves covered with symptom between 16 % and 45 % area)

# System: Candida albicans KE-2
# Assay: Inhibition test against pseudomycelium formation of Candida albicans
# Format: cell-based
# Conditions: KE2, minimum effective concentration preventing typical pseudomycelium formation, Eagle-MEM + 20 % calf serum, 18 hours at 37 °C, read-out: Inhibitory Concentration of Pseudo-myselium Formation
# Protocol: Candida albicans KE-2 was inoculated to Eagle-MEM medium (Nissan 2 made by Nissui Seiyaku, Ltd.) supplemented with 20 % calf serum so that its final inoculum of yeast cell might be 1 x 10^6 yeast cells per milliliter. The test compounds were added thereon in two fold dilution series. After incubation for 18 hours at 37 °C, the fungal growth in each drug concentration was smeared and fixed on a slide glass, and the presence or absence of the pseudomycelium formation was examined by a microscope following Giemsa staining. Minimum effective concentration was defined as the lowest concentration of the compound which prevented typical pseudomycelium formation.
row,SMILES,minimal effective concentration [µg/mL]
1,Cc1cc(C(O)(Cn2cncn2)c2ccc(Cl)cc2)no1 (stereo not drawn) [Ia - 5],0.02
2,Cc1cc(C(O)(Cn2cncn2)c2ccc(Cl)cc2Cl)no1 (stereo not drawn) [Ia - 7],0.02
3,Cc1cc(C(O)(Cn2cncn2)c2ccc(F)cc2F)no1 (stereo not drawn) [Ia - 8],0.08

# System: Candida albicans KE-2
# Assay: Therapeutic effect against experimental candidiasis in mice
# Format: in vivo
# Conditions: KE2, po, 120 h, mouse survival ratio on the 5th day after infection, Jcl-ICR female mouse, 50 mg/kg orally three times (0, 4, 24 hours)
# Protocol: After Candida albicans KE-2 was incubated on Sabouraud's glucose agar at 28 °C for 48 hr., it was suspended in Sabouraud's glucose broth and the cells ([…]) were injected to a tail vein of Jcl-ICR female mouse (4 weeks age; weight : 18 - 20 g). A suspension of the test compound in 2 % gum arabic was orally administered three times, immediately after infection of the yeast ( 0 hour), after 4 hours and after 24 hours, as a dosage of 50 mg/kg. Non-treated group was used as control. Each eight mice per group was used in control group and treated group. All the mice in control group died within 48 hr. after infection. Therapeutic effect of the test compound was judged by mouse survival ratio on the 5th day after infection.
row,SMILES,responders at 50 mg/kg [%]
1,Cc1cc(C(O)(Cn2cncn2)c2ccc(Cl)cc2)no1 (stereo not drawn) [Ia - 5],87.5
2,Cc1cc(C(O)(Cn2cncn2)c2ccc(F)cc2F)no1 (stereo not drawn) [Ia - 8],50

# System: Puccinia coronata
# Assay: Control by seed-soaking: crown rust in oats
# Format: in vivo
# Conditions: 125 ppm
# Protocol: as §1, §2, §3
row,SMILES,Control Index Crown Rust in Oats
1,Cc1cc(C(O)(Cn2cncn2)c2ccc(Cl)cc2)no1 (stereo not drawn) [Ia - 5],50 (Leaves covered with symptom between 46 % and 65 % area)
2,Cc1cc(C(O)(Cn2cncn2)c2ccc(Cl)cc2Cl)no1 (stereo not drawn) [Ia - 7],70 (Leaves covered with symptom between 16 % and 45 % area)

# Same assay, conditions: 500 ppm
row,SMILES,Control Index Crown Rust in Oats
1,Cc1cc(C(O)(Cn2cncn2)c2ccc(Cl)cc2)no1 (stereo not drawn) [Ia - 5],97 (Leaves covered with symptom less than 3 % area)
2,Cc1cc(C(O)(Cn2cncn2)c2ccc(Cl)cc2Cl)no1 (stereo not drawn) [Ia - 7],100
